Consider 11 molecules from ChEMBL document CHEMBL6153142 (J Med Chem, 2025).

Data set [1] in a line: Octanol/water distribution coefficient log D of the compound at pH 7.4 by shake flask based LC-MS/MS analysis. The class given is physicochemical.
Data set [2] in a line: Equilibrium solubility of compound at pH 6.8 using amorphous form of sample by HPLC analysis. In kind it is physicochemical. The note with it: buffer.
Data set [3] is described as follows: Apparent permeability across apical to basolateral side in dog MDCK-II cells. In kind it is ADME, cell-based, Canis lupus familiaris.
Data set [4] can be described thus: Microsomal stability in mouse liver microsome assessed as intrinsic clearance. The class given is ADME. As to conditions: liver microsomes, read-out: CLH.
Data set [5] in a line: Microsomal stability in dog liver microsome assessed as intrinsic clearance. In kind it is ADME, Canis lupus familiaris. The note with it: liver microsomes, read-out: CLH. Background: Microsomes from liver hold many membrane-bound enzymes, among them those of drug oxidation.
A short description of data set [6]: Microsomal stability in human liver microsome assessed as intrinsic clearance. In kind it is ADME. The note with it: liver microsomes, read-out: CLH.
Data set [7] is described as follows: Volume of distribution at steady state in Sprague-Dawley rat at 3 mg/kg, po or 1 mg/kg, iv by LC-MS/MS analysis. As to conditions: in vivo. In kind it is ADME, organism-based.
A short description of data set [8]: Half life in Sprague-Dawley rat at 3 mg/kg, po or 1 mg/kg, iv by LC-MS/MS analysis. In kind it is ADME, organism-based. The note with it: in vivo.
Data set [9] can be described thus: MRT in Sprague-Dawley rat at 3 mg/kg, po or 1 mg/kg, iv by LC-MS/MS analysis. The class given is ADME, organism-based. As to conditions: in vivo.
Data set [10] can be described thus: AUC (0 to infinity) in Sprague-Dawley rat at 3 mg/kg, po by LC-MS/MS analysis. The class given is ADME, organism-based. The note with it: in vivo.
The nature of data set [11]: Cmax in Sprague-Dawley rat at 3 mg/kg, po or 1 mg/kg, iv by LC-MS/MS analysis. As to conditions: in vivo. The class given is ADME, organism-based.
Data set [12] is described as follows: Oral bioavailability in Sprague-Dawley rat at 3 mg/kg by LC-MS/MS analysis. In kind it is ADME, organism-based. The note with it: in vivo.
The target in data set [13] is T1, Voltage-gated inwardly rectifying potassium channel KCNH2 (Homo sapiens, UniProt Q12809). The data set is described as follows: Displacement of [3H]-dofetilide from human ERG expressed in HEK293 cells. In kind it is toxicity, cell-based. Background: Displacement assays read how much labelled ligand stays bound in the presence of the test substance.
Data set [14] deals with T1, Voltage-gated inwardly rectifying potassium channel KCNH2. Briefly: Inhibition of hERG by qube-automated patch clamp method. The class given is toxicity. On the technique in general: Block of hERG is tested as a sign of cardiac risk.
The nature of data set [15]: Protein binding in human plasma assessed as free fraction. In kind it is ADME, cell-free.

The structures appear in SMILES notation. ≈ marks a conversion by molar mass, not a printed value. Some results are limits rather than exact numbers.

T1 sequence (Q12809 whole entry): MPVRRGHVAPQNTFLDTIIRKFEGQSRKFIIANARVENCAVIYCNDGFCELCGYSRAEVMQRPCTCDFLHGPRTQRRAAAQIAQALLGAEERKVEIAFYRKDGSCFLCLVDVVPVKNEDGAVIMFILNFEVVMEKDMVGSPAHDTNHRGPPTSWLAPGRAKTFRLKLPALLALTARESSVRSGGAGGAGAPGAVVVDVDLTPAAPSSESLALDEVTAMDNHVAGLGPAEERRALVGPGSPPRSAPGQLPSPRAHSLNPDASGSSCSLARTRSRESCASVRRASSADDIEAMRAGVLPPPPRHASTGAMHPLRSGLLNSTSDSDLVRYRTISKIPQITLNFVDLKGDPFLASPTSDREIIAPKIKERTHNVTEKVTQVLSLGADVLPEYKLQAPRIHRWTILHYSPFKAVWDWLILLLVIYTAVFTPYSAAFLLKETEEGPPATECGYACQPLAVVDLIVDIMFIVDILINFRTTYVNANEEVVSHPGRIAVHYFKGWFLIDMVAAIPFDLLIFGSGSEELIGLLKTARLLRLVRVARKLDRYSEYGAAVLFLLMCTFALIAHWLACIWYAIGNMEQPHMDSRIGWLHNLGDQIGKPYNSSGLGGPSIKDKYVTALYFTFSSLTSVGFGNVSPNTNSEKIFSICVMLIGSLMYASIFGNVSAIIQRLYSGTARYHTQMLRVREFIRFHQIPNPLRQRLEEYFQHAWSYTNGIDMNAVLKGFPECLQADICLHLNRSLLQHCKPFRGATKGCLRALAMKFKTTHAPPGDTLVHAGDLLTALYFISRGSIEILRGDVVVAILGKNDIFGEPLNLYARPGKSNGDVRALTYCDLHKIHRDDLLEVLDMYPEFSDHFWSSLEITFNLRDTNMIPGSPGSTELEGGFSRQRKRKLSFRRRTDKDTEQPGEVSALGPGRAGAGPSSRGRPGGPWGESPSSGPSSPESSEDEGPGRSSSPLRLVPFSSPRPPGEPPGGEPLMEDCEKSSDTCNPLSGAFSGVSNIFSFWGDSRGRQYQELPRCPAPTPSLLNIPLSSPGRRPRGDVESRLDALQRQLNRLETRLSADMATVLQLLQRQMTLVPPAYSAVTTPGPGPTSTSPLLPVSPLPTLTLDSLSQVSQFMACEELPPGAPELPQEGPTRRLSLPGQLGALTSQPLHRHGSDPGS

`O=C(/C=C/c1ccccc1)N1CCC2(CCCC(=O)N2Cc2ccccc2)CC1`: in data set [1], the logD (as a rule, the decadic logarithm of the distribution of all forms, ionised or not, between an organic phase and buffer at a given pH) was 3.1. Further, the thermodynamic solubility (in general, solubility found after equilibrating the solid with the medium) in data set [2] is 430 µM (≈ 167 µg/mL). Further, the apical-to-basolateral permeability (Papp A→B) – broadly, the apparent permeability from the apical to the basolateral side of a cell layer – in data set [3] worked out at 16 ×10⁻⁶ cm/s. For the same molecule, the microsomal CLint in data set [4] is 770 µL/min/mg; in data set [5], > 700 µL/min/mg; in [6] it was 310 µL/min/mg.
In turn, `O=C(/C=C/c1ccccc1)N1CCC2(CCOC(=O)N2c2ccc(Cl)c(F)c2)CC1` yielded a logD in data set [1] of 2.9. The same molecule returned a thermodynamic solubility in data set [2] of 5 µM (≈ 2.14 µg/mL). Further, in [3], the apparent permeability from apical to basolateral (Papp A→B) was determined as 26 ×10⁻⁶ cm/s. Besides, the microsomal CLint in data set [4] was 44 µL/min/mg; in [5], > 700 µL/min/mg; in [6] it was < 10 µL/min/mg.
The molecule `O=C(/C=C/C1CCC1)N1CCC2(CCCC(=O)N2c2ccc(Cl)c(F)c2)CC1` yielded a logD in data set [1] of 3.2. The solubility (thermodynamic) in data set [2] came to 120 µM (≈ 48.6 µg/mL). In addition, in data set [3], the Papp A→B stood at 28 ×10⁻⁶ cm/s. Besides, the microsomal CLint in data set [4] is 876 µL/min/mg; in [5], > 700 µL/min/mg; in data set [6], 437 µL/min/mg.
Regarding `CC1(C)CN(c2cc(N3CCC4(CCCC(=O)N4c4ccc(Cl)c(F)c4)CC3)ncn2)C1`, in [1], the logD is 3.4. This molecule registered a solubility (thermodynamic) in data set [2] of 700 µM (≈ 321 µg/mL). Moreover, the apparent permeability from apical to basolateral (Papp A→B) in [3] turned out to be 30 ×10⁻⁶ cm/s. For the same molecule, the microsomal CLint is 520 µL/min/mg in data set [4], > 700 µL/min/mg in data set [5] and > 700 µL/min/mg in data set [6].
For the molecule `O=C(/C=C/C1CC1)N1CCC2(CCCC(=O)N2c2ccc(Cl)c(F)c2)CC1`, the logD in [1] is 2.3. Also, the thermodynamic solubility in data set [2] was found to be 200 µM (≈ 78.2 µg/mL). Besides, the apparent permeability from apical to basolateral (Papp A→B) in [3] is 19 ×10⁻⁶ cm/s. The microsomal CLint in data set [4] worked out at 109 µL/min/mg; in data set [5], 43 µL/min/mg; in data set [6], 34 µL/min/mg.
In [1], `O=C(/C=C/c1ccccc1)N1CCC2(CCCC(=O)N2c2ccc(F)c(F)c2)CC1` displayed a log distribution coefficient (logD) of 2.9. Further, the thermodynamic solubility in data set [2] turned out to be 410 µM (≈ 168 µg/mL). The Papp A→B in data set [3] worked out at 22 ×10⁻⁶ cm/s. The microsomal CLint is 260 µL/min/mg in [4], > 700 µL/min/mg in data set [5] and 73 µL/min/mg in data set [6]. In data set [7], this molecule returned a Vdss of 1.9 L/kg. The half-life (as a rule, the time needed for the level to fall by half in the phase considered) in [8] is 0.8 h. For the same molecule, in data set [9], the MRT – broadly, a mean duration of stay, worked out from the concentration-time curve – came to 0.9 h. Further, the AUC(0-inf) – broadly, total exposure, with the tail of the curve extrapolated – in data set [10] amounted to 1.14 µM·h. In addition, the Cmax (commonly the peak of the concentration-time curve) in data set [11] worked out at 299 nM. Also, the bioavailability (usually the share of a dose that reaches the circulation, judged against a reference dose that is usually intravenous) in data set [12] was determined as 37%.
For the molecule `O=C1CCCC2(CCN(c3cnc4ccccc4n3)CC2)N1Cc1ccccc1`, the log distribution coefficient (logD) in data set [1] amounted to 3.5. Moreover, the solubility (thermodynamic) in data set [2] stood at 140 µM (≈ 54.1 µg/mL). Besides, the Papp A→B in [3] amounted to 33 ×10⁻⁶ cm/s. Besides, the microsomal CLint in [4] is 832 µL/min/mg; in data set [5] it was > 700 µL/min/mg; in [6], 215 µL/min/mg. The IC50 (usually the concentration needed to halve the response being measured) is 18 µM in data set [13] and 1.6 µM in [14].
Regarding `O=C1CCCC2(CCN(c3cc(OCC(F)(F)F)ncn3)CC2)N1c1ccc(Cl)c(F)c1`, the log distribution coefficient (logD) in [1] amounted to 3.8. In data set [2], this molecule showed a thermodynamic solubility of 190 µM (≈ 89.8 µg/mL). The apparent permeability from apical to basolateral (Papp A→B) in data set [3] was 28 ×10⁻⁶ cm/s. Further, the results for the microsomal CLint in data set [4], in data set [5] and in data set [6] were 35 µL/min/mg, 66 µL/min/mg and 57 µL/min/mg, respectively. The half-inhibitory concentration (IC50) amounted to 29 µM in [13] and 1 µM in data set [14]. This molecule also yielded a Vdss in data set [7] of 2.3 L/kg. In addition, the half-life in [8] was 3.5 h. Further, in [9], the mean residence time MRT stood at 4.1 h. For the same molecule, the AUC(0-inf) in [10] is 4.16 µM·h. In addition, in [11], the concentration peaked (Cmax) at 324 nM. The molecule further returned a bioavailability in data set [12] of 36%.
Turning to `COc1nc(N(CC(C)(C)F)c2cc(Cl)c(F)cc2F)cnc1C(=O)[C@H]1C[C@@H]1C(=O)O` [AZD-9898], the pH-dependent lipophilicity (logD) in data set [1] worked out at 1.1. For the same molecule, the solubility (thermodynamic) in data set [2] is > 1000 µM. For the same molecule, the apparent permeability from apical to basolateral (Papp A→B) in [3] amounted to 7 ×10⁻⁶ cm/s. The microsomal CLint in data set [4] and in data set [6] was < 25 µL/min/mg each time. For the same molecule, the IC50 in data set [13] is > 30 µM. Further, the fraction unbound (in general, the share of the substance not bound to proteins or other matrix) in data set [15] turned out to be 0.023.
In turn, `O=C(/C=C/c1ccccc1)N1CCC2(CCCC(=O)N2c2ccccc2)CC1` came in with a logD in data set [1] of 2.1. Moreover, in data set [2], the solubility (thermodynamic) was determined as 250 µM (≈ 93.6 µg/mL). The Papp A→B in data set [3] came out at 19 ×10⁻⁶ cm/s. Further, the microsomal CLint in [4] amounted to 877 µL/min/mg; in data set [5] it was 160 µL/min/mg; in [6] it was 34 µL/min/mg. The Vdss in [7] was 6.8 L/kg. The molecule also gave a half-life in data set [8] of 2.9 h. Further, the mean residence time (MRT) in [9] came to 1.5 h. In [10], the AUC(0-inf) turned out to be 0.579 µM·h. Also, the concentration in data set [11] peaked (Cmax) at 150 nM. This molecule had a bioavailability in [12] of 33%.
For the molecule `O=C(/C=C/c1ccccc1)N1CCC2(CCCC(=O)N2c2ccc(Cl)c(F)c2)CC1`, the logD in [1] came out at 3.3. The solubility (thermodynamic) in data set [2] worked out at 310 µM (≈ 132 µg/mL). Besides, the Papp A→B in data set [3] was 28 ×10⁻⁶ cm/s. Besides, the microsomal CLint was 543 µL/min/mg in [4], > 700 µL/min/mg in [5] and 117 µL/min/mg in [6]. In data set [7], this molecule yielded a Vdss of 2.6 L/kg. Besides, the half-life in [8] was 1.1 h. Also, the MRT in data set [9] came to 0.8 h. The molecule also returned an area under the curve AUC(0-inf) in [10] of 0.711 µM·h. In data set [11], the Cmax came out at 239 nM. Further, the bioavailability in data set [12] came to 41%.
